# Assay results published in PMC9118628, “Synthesis, molecular docking, and cytotoxicity of quinazolinone and dihydroquinazolinone derivatives as cytotoxic agents” (BMC Chemistry, 2022).
# Where two headings read alike, the source gives them in different places.
# Experiments:
# [1] = tested on: PARP10; conditions: cited from earlier work
# [2] = tested on: human colon cancer HCT-116 cell line; test: MTT cytotoxicity assay, HCT-116; assay type: cell-based
# Description: (§1) The selected compounds 5a–e and 10a–f were evaluated as possible cytotoxic agents against human colon cancer HCT-116 cell line and MCF-7 breast cancer cell line by MTT assay using doxorubicin as the standard drug. […] The IC50 value was calculated from the inhibition rates at the mentioned durations. […] This is because the IC50 values in 72 h with p-value < 0.0001 are less than those in 48 h.
# (§2) The human cancer cells MCF-7and HCT-116 as well as Hek-293 as normal cells were purchased from Pastor Institute of Iran. The cells were maintained in RPMI 1640 medium supplemented with 10% heat-inactivated fetal bovine serum (Company: DNAbiotec, Cat number: DB9723), and streptomycin ([…]) and penicillin (100 U/ml) at 37 °C in a humidified atmosphere with 5% CO2 in the air.
# (§3) The cytotoxic activities of compounds 5a–e and 10a–f were evaluated against cancerous cell lines. […] The absorbance was read at 570 nm against a test wavelength of 690 nm […]. The inhibition percentage of compounds was calculated as: ODwells treated with DMSO1%–ODwells treated with compounds/ODwells treated with DMSO1%*100 (OD = absorbance). Then, IC50 values were calculated by nonlinear regression analysis.
# [3] = tested on: Hek-293 cell lines; test: MTT toxicity assessment on normal cells; assay type: cell-based; conditions: for toxicity against Hek-293 cell lines (in words): Hek-293 normal cells; for IC50: Homo sapiens, HEK293, Hek-293 normal cells, 72 h, read-out: IC50 (µM) Hek-293 after 72 h
# Description: as §2, §3
# [4] = tested on: MCF-7 breast cancer cell line; test: MTT cytotoxicity assay, MCF-7; assay type: cell-based; conditions: Homo sapiens
# Description: as §1, §2, §3
# [5] = HCT-116, 48 h, read-out: IC50 (µM) HCT-116 48 h
# [6] = HCT-116, 72 h, read-out: IC50 (µM) HCT-116 72 h
# [7] = MCF7, MCF-7, 48 h, read-out: IC50 (µM) MCF-7 48 h
# [8] = MCF7, MCF-7, 72 h, read-out: IC50 (µM) MCF-7 72 h
compound,measurement,setting,value
Cc1c(-c2ccnc(C(F)(F)F)c2)ccc2c1CCNC2=O [H],IC50,[1],2.7 µM
"COc1ccc(-n2c(Nc3ccccc3)nc3ccccc3c2=O)cc1 [Compound 5d, 3-(4-methoxyphenyl)-2-(phenylamino)quinazolin-4(3H)-one]",IC50,[2]; [5],39.2 µM
same,IC50,[2]; [6],17.8 µM
same,toxicity against Hek-293 cell lines (in words),[3],low toxicity
same,IC50,[3],68.1 ± 12.3 µM
same,IC50,[4]; [7],28.8 µM
same,IC50,[4]; [8],25 µM
same,melting point,,256 to 259 °C
CC#Cc1ccc2c(=O)[nH]c(CSc3ccc(C(=O)O)cc3)nc2c1 [Compound F],IC50,[1],0.2 µM
"Cc1ccccc1Cn1cc(COc2ccc(C3Nc4ccccc4C(=O)N3Cc3ccc(F)cc3)cc2)nn1 (stereo not drawn) [Compound 10e, 3-(4-fluorobenzyl)-2-(4-((1-(2-methylbenzyl)-1H-1,2,3-triazol-4-yl)methoxy)phenyl)-2,3-dihydroquinazolin-4(1H)-one]",IC50,[2]; [5],48.2 µM
same,IC50,[2]; [6],33.3 µM
same,IC50,[4]; [7],79.1 µM
same,IC50,[4]; [8],48.8 µM
same,melting point,,63 to 65 °C
"O=c1c2ccccc2nc(Nc2ccccc2)n1C1CC1 [Compound 5c, 3-cyclopropyl-2-(phenylamino)quinazolin-4(3H)-one]",IC50,[2]; [5],59.2 µM
same,IC50,[2]; [6],29.2 µM
same,IC50,[4]; [7],74.9 µM
same,IC50,[4]; [8],50.4 µM
same,melting point,,141 to 144 °C
"O=C1c2ccccc2NC(c2ccc(OCc3cn(Cc4ccc(F)cc4)nn3)cc2)N1Cc1ccccc1 (stereo not drawn) [Compound 10b, 3-benzyl-2-(4-((1-(4-fluorobenzyl)-1H-1,2,3-triazol-4-yl)methoxy)phenyl)-2,3 dihydroquinazolin-4(1H)-one]",IC50,[2]; [5],184 µM
same,IC50,[2]; [6],64 µM
same,IC50,[4]; [7],139 µM
same,IC50,[4]; [8],98.5 µM
same,melting point,,83 to 86 °C
"COc1cccc2c1C(=O)c1c(O)c3c(c(O)c1C2=O)C[C@@](O)(C(=O)CO)C[C@@H]3O[C@H]1C[C@H](N)[C@H](O)[C@H](C)O1 [DOX, doxorubicin, reference compound]",IC50,[2]; [5],1.66 µM
same,IC50,[2]; [6],1.2 µM
same,IC50,[3],0.75 ± 0.09 µM
same,IC50,[4]; [7],1.33 µM
same,IC50,[4]; [8],1.08 µM
"O=C1c2ccccc2NC(c2ccc(OCc3cn(Cc4ccc(Br)cc4)nn3)cc2)N1Cc1ccccc1 (stereo not drawn) [Compound 10d, 3-benzyl-2-(4-((1-(4-bromobenzyl)-1H-1,2,3-triazol-4-yl)methoxy)phenyl)-2,3-dihydroquinazolin-4(1H)-one]",IC50,[2]; [5],251 µM
same,IC50,[2]; [6],206 µM
same,IC50,[4]; [7],44.7 µM
same,IC50,[4]; [8],14.8 µM
same,melting point,,93 to 95 °C
"Cc1ccccc1Nc1nc2ccccc2c(=O)n1-c1ccccc1 [Compound 5a, 2-[(2-Methylphenyl)amino]-3-phenylquinazolin-4(3H)-one]",IC50,[2]; [5],7.15 µM
same,IC50,[2]; [6],4.87 µM
same,toxicity against Hek-293 cell lines (in words),[3],high toxicity
same,IC50,[3],8.71 ± 1.23 µM
same,IC50,[4]; [7],71.2 µM
same,IC50,[4]; [8],14.7 µM
same,melting point,,254 to 258 °C
"CC(C)n1c(Nc2ccccc2)nc2ccccc2c1=O [Compound 5e, 3-isopropyl-2-(phenylamino)quinazolin-4(3H)-one]",IC50,[2]; [5],88.7 µM
same,IC50,[2]; [6],63.3 µM
same,IC50,[4]; [7],79 µM
same,IC50,[4]; [8],42.7 µM
same,melting point,,143 to 146 °C
"O=C1c2ccccc2NC(c2ccc(OCc3cn(Cc4ccccc4)nn3)cc2)N1Cc1ccccc1 (stereo not drawn) [Compound 10a, 3-benzyl-2-(4-((1-benzyl-1H-1,2,3-triazol-4-yl)methoxy)phenyl)-2,3-dihydroquinazolin-4(1H)-one]",IC50,[2]; [5],88.8 µM
same,IC50,[2]; [6],29 µM
same,IC50,[4]; [7],62.3 µM
same,IC50,[4]; [8],18.9 µM
same,melting point,,65 to 68 °C
"O=c1c2ccccc2nc(Nc2ccccc2)n1CCl [Compound 5b, 3-(chloromethyl)-2-(phenylamino)quinazolin-4(3H)-one]",IC50,[2]; [5],59.3 µM
same,IC50,[2]; [6],37.8 µM
same,IC50,[4]; [7],101 µM
same,IC50,[4]; [8],76.2 µM
same,melting point,,194 to 197 °C
"O=C1c2ccccc2NC(c2ccc(OCc3cn(Cc4ccc(F)cc4)nn3)cc2)N1Cc1ccc(F)cc1 (stereo not drawn) [Compound 10f, 3-(4-fluorobenzyl)-2-(4-((1-(4-fluorobenzyl)-1H-1,2,3-triazol-4-yl)methoxy)phenyl)-2,3-dihydroquinazolin-4(1H)-one]",IC50,[2]; [5],40.4 µM
same,IC50,[2]; [6],10.1 µM
same,toxicity against Hek-293 cell lines (in words),[3],low toxicity
same,IC50,[3],56.1 ± 10.4 µM
same,IC50,[4]; [7],41.5 µM
same,IC50,[4]; [8],16.3 µM
same,melting point,,69 to 72 °C
"O=C1c2ccccc2NC(c2ccc(OCc3cn(Cc4ccc(Cl)cc4)nn3)cc2)N1Cc1ccccc1 (stereo not drawn) [Compound 10c, 3-benzyl-2-(4-((1-(4-chlorobenzyl)-1H-1,2,3-triazol-4-yl)methoxy)phenyl)-2,3-dihydroquinazolin-4(1H)-one]",IC50,[2]; [5],120 µM
same,IC50,[2]; [6],61 µM
same,IC50,[4]; [7],52 µM
same,IC50,[4]; [8],32.3 µM
same,melting point,,84 to 87 °C
CC#Cc1ccc2c(=O)[nH]c(CSc3ncccn3)nc2c1 [Compound G],IC50,[1],9.3 µM
